Experimental data: patent publication US20250188092A1, “RIFAMYCIN ANALOGS” (THE REGENTS OF THE UNIVERSITY OF MICHIGAN, priority 2021, published 2025)
Converted amounts (≈) assume the structure as drawn. Where two headings read alike, the source gives them in different places.

Tests used:
[1] = molecular target: T1, human pregnane X receptor (hPXR) (Homo sapiens, UniProt O75469)
T1 sequence (O75469 1-434): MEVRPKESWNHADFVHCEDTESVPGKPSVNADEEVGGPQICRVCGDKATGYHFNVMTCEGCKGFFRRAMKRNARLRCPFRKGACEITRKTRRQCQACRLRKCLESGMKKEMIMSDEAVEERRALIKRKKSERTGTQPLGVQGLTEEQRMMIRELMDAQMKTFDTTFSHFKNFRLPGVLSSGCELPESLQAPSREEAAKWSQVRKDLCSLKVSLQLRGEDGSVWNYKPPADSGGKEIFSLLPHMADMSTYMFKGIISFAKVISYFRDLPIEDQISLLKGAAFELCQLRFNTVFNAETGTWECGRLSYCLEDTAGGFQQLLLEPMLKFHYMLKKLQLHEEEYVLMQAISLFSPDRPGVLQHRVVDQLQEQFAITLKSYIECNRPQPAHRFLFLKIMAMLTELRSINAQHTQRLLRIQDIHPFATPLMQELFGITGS

MTB H37Rv ATCC 27294 = assay: MIC, microplate Alamar Blue assay (MABA); format: cell-based, Mycobacterium tuberculosis; settings: for MIC90 / MIC: MTB H37Rv ATCC 27294, microplate Alamar Blue assay, lowest concentration giving ≥90% reduction in fluorescence; for MIC: read-out: MIC90 MABA
VERO cells (ATCC CRL-81) = assay: Vero cell toxicity; format: cell-based; settings: 72 hours exposure
Procedure: Cytotoxicity for a mammalian cell line was determined by exposing VERO cells (ATCC CRL-81) to serial dilutions of test compounds for 72 hours, followed by addition of resazurin and measurement of fluorescence after 4 hours incubation (Choules, et al., Antimnicrob. Agents Chemother. 2019, 63, e02204-02218).

WT MTB RNAP = molecular target: T2, WT MTB RNAP (Mycobacterium tuberculosis, UniProt P9WGY9); format: biochemical; settings: lower limit of detection ~5 nM
T2 construct: made in house; host or cells: E. coli BL21(DE3)

M. tuberculosis H37Rv = assay: Minimum bactericidal concentration (MBC, CFU Assay); format: cell-based, Mycobacterium tuberculosis; settings: for MBC99 Day 7 (CFU Assay) MBC99 Rel to RMP: CFU Assay MBC99 relative to rifampin (RMP = 1); for MBC: Mycobacterium tuberculosis, 168 h, Day 7, M. tuberculosis H37Rv, ≥99% reduction in colony forming units, read-out: MBC99 Day 7 (CFU Assay) MBC99
[2] = molecular target: T3, E. coli D516V (RIF^R) RNAP (Escherichia coli, UniProt P0A8V2, D516V); assay: biochemical
T3 construct: made in house

[3] = molecular target: T4, E. coli S531L (RIF^R) RNAP (Escherichia coli, UniProt P0A8V2, S531L); assay: biochemical
T4 construct: made in house

E. coli WT RNAP = molecular target: T5, E. coli WT RNAP (Escherichia coli, UniProt P0A8V2); assay: biochemical
T5 construct: made in house

SMILES: CO[C@H]1/C=C/O[C@@]2(C)Oc3c(C)c(O)c4c(=O)c(c5oc6cc(C)cc(N7CCN(C)CC7)c6nc-5c4c3C2=O)NC(=O)/C(C)=C\C=C\[C@H](C)[C@H](O)[C@@H](C)[C@@H](O)[C@@H](C)[C@H](OC(C)=O)[C@@H]1C [Compound 30a, (7S,9E,11S,12R,13S,14R,15R,16R,17S,18S,19E,21Z)-2,15,17-Trihydroxy-11-methoxy-3,7,12,14,16,18,22,30-octamethyl-32-(4-methylpiperazin-1-yl)-6,23,37-trioxo-8,27,38-trioxa-24,34-diazahexacyclo[23.11.1.1^4,7.0^5,36.0^26,35.0^28,33]octatriaconta-1(36)2,4,9,19,21,25,28,30,32,34-undecaen-13-yl acetate]
- DPX2 Viability @ 6.25 μM (DPX2 cells): 92%
- DPX2 Viability @ 25 μM (DPX2 cells): 47%
- hPXR Fold Act. (lucif) @ 6.25 μM [1]: 4.6 fold
- hPXR Fold Act. (lucif) @ 25 μM [1]: 20.4 fold
- MIC90 MABA Rel to RMP (MTB H37Rv ATCC 27294): <0.6
- MIC90 (MTB H37Rv ATCC 27294): <0.016 µM
- IC50 (VERO cells (ATCC CRL-81)): > 8 µM

SMILES: CO[C@H]1/C=C/O[C@@]2(C)Oc3c(C)c(O)c4c(=O)c(c5oc6cc(N7CCC(CC(=O)O)CC7)cc(N7CCC(CC(=O)O)CC7)c6nc-5c4c3C2=O)NC(=O)/C(C)=C\C=C\[C@H](C)[C@H](O)[C@@H](C)[C@@H](O)[C@@H](C)[C@H](OC(C)=O)[C@@H]1C [Compound 17v, 2-{1-[(7S,9E,11S,12R,13S,14R,15R,16R,17S,18S,19E,21Z)-13-(acetyloxy)-32-[4-(carboxymethyl)piperidin-1-yl]-2,15,17-trihydroxy-11-methoxy-3,7,12,14,16,18,22-heptamethyl-6,23,37-trioxo-8,27,38-trioxa-24,34-diazahexacyclo-[23.11.1.1^4,7.0^5,36.0^26,35.0^28,33]octatriaconta-1,3,5(36)9,19,21,25,28,30,32,34-undecaen-30-yl]piperidin-4-yl)acetic acid]
- DPX2 Viability @ 6.25 μM (DPX2 cells): 110%
- DPX2 Viability @ 25 μM (DPX2 cells): 100%
- hPXR Fold Act. (lucif) @ 6.25 μM [1]: 1.2 fold
- hPXR Fold Act. (lucif) @ 25 μM [1]: 1.6 fold
- IC50 (WT MTB RNAP): 0.027 µM
- IC50 (VERO cells (ATCC CRL-81)): > 10 µM

SMILES: CO[C@H]1/C=C/O[C@@]2(C)Oc3c(C)c(O)c4c(=O)c(c5oc6cc(N7CCN(C)CC7)cc(OCCCCN7CCN(C(=O)Cn8ccnc8)CC7)c6nc-5c4c3C2=O)NC(=O)/C(C)=C\C=C\[C@H](C)[C@H](O)[C@@H](C)[C@@H](O)[C@@H](C)[C@H](OC(C)=O)[C@@H]1C [Compound 6c, (7S,9E,11S,12R,13S,14R,15R,16R,17S,18S,19E,21Z)-2,15,17-Trihydroxy-32-(4-{4-[2-(1H-imidazol-1-yl)acetyl]piperazin-1-yl}butoxy)-11-methoxy-3,7,12,14,16,18,22-heptamethyl-30-(4-methylpiperazin-1-yl)-6,23,37-trioxo-8,27,38-trioxa-24,34-diazahexacyclo[23.11.1.1^4,7.0^5,36.0^26,35.0^28,33]octatriaconta-1(36)2,4,9,19,21,25,28(33)29,31,34-undecaen-13-yl acetate]
- DPX2 Viability @ 6.25 μM (DPX2 cells; 6.25 μM, 24 h): 108%
- DPX2 Viability @ 25 μM (DPX2 cells; human): 111%
- MBC99 Day 7 (CFU Assay) MBC99 Rel to RMP (M. tuberculosis H37Rv): 0.38
- MBC (M. tuberculosis H37Rv): 0.05 µM
- MIC90 MABA Rel to RMP (MTB H37Rv ATCC 27294): 2.7
- MIC (MTB H37Rv ATCC 27294; Mycobacterium tuberculosis): 0.039 µM
- IC50 [2]: 12 µM
- IC50 [3]: 230 µM
- IC50 (VERO cells (ATCC CRL-81); Chlorocebus sabaeus, Vero): 53 µM
- IC50 (E. coli WT RNAP): 0.01 µM

SMILES: CO[C@H]1/C=C/O[C@@]2(C)Oc3c(C)c(O)c4c(=O)c(c5oc6cc(N7CCC(CC(=O)O)CC7)cc(OCc7ccc(CN8CCOCC8)cc7)c6nc-5c4c3C2=O)NC(=O)/C(C)=C\C=C\[C@H](C)[C@H](O)[C@@H](C)[C@@H](O)[C@@H](C)[C@H](OC(C)=O)[C@@H]1C [Compound 17l, 2-{1-[(7S,9E,11S,12R,13S,14R,15R,16R,17S,18S,19E,21Z)-13-(acetyloxy)-2,15,17-trihydroxy-11-methoxy-3,7,12,14,16,18,22-heptamethyl-32-{[4-(morpholin-4-ylmethyl)phenyl]methoxy}-6,23,37-trioxo-8,27,38-trioxa-24,34-diazahexacyclo-[23.11.1.1^4,7.0^5,36.0^26,35.0^28,33]octatriaconta-1,3,5(36)9,19,21,25,28,30,32,34-undecaen-30-yl]piperidin-4-yl)acetic acid]
- DPX2 Viability @ 6.25 μM (DPX2 cells): 107%
- DPX2 Viability @ 25 μM (DPX2 cells): 102%
- hPXR Fold Act. (lucif) @ 6.25 μM [1]: 1.1 fold
- hPXR Fold Act. (lucif) @ 25 μM [1]: 1.9 fold
- IC50 (WT MTB RNAP): 0.013 µM
- MIC90 MABA Rel to RMP (MTB H37Rv ATCC 27294): 7.0
- MIC90 (MTB H37Rv ATCC 27294): 0.187 µM (≈ 0.212 µg/mL)
- IC50 (VERO cells (ATCC CRL-81)): > 10 µM

SMILES: CO[C@H]1/C=C/O[C@@]2(C)Oc3c(C)c(O)c4c(=O)c(c5oc6cc(N7CCN(CC(C)C)CC7)cc(OCCCCN7CCN(C(=O)Cn8ccnc8)CC7)c6nc-5c4c3C2=O)NC(=O)/C(C)=C\C=C\[C@H](C)[C@H](O)[C@@H](C)[C@@H](O)[C@@H](C)[C@H](OC(C)=O)[C@@H]1C [Compound 6d, (7S,9E,11S,12R,13S,14R,15R,16R,17S,18S,19E,21Z)-2,15,17-Trihydroxy-32-(4-{4-[2-(1H-imidazol-1-yl)acetyl]piperazin-1-yl}butoxy)-11-methoxy-3,7,12,14,16,18,22-heptamethyl-30-[4-(2-methylpropyl)piperazin-1-yl]-6,23,37-trioxo-8,27,38-trioxa-24,34-diazahexacyclo[23.11.1.1^4,7.0^5,36.0^26,35.0^28,33]octatriaconta-1(36)2,4,9,19,21,25,28,30,32,34-undecaen-13-yl acetate]
- DPX2 Viability @ 6.25 μM (DPX2 cells; 6.25 μM, 24 h): 104%
- DPX2 Viability @ 25 μM (DPX2 cells; human): 90%
- MBC99 Day 7 (CFU Assay) MBC99 Rel to RMP (M. tuberculosis H37Rv): 0.23
- MBC (M. tuberculosis H37Rv): 0.03 µM
- MIC90 MABA Rel to RMP (MTB H37Rv ATCC 27294): 1.3
- MIC (MTB H37Rv ATCC 27294; Mycobacterium tuberculosis): 0.024 µM
- IC50 [2]: 59 µM
- IC50 [3]: 93 µM
- IC50 (VERO cells (ATCC CRL-81); Chlorocebus sabaeus, Vero): > 8 µM
- IC50 (E. coli WT RNAP): 0.008 µM

SMILES: CO[C@H]1/C=C/O[C@@]2(C)Oc3c(C)c(O)c4c(=O)c(c5oc6cc(N7CCN(CC(C)C)CC7)cc(OCc7ccc(CN8CCN(C(=O)CN9CCOCC9)CC8)cc7)c6nc-5c4c3C2=O)NC(=O)/C(C)=C\C=C\[C@H](C)[C@H](O)[C@@H](C)[C@@H](O)[C@@H](C)[C@H](OC(C)=O)[C@@H]1C [Compound 17d, (7S,9E,11S,12R,13S,14R,15R,16R,17S,18S,19E,21Z)-2,15,17-Trihydroxy-11-methoxy-3,7,12,14,16,18,22-heptamethyl-30-[4-(2-methylpropyl)piperazin-1-yl]-32-{[4-({4-[2-(morpholin-4-yl)acetyl]piperazin-1-yl}methyl)phenyl]methoxy}-6,23,37-trioxo-8,27,38-trioxa-24,34-diazahexacyclo[23.11.1.1^4,7.0^5,36.0^26,35.0^28,33]octatriaconta-1(36)2,4,9,19,21,25,28,30,32,34-undecaen-13-yl acetate]
- DPX2 Viability @ 6.25 μM (DPX2 cells; 6.25 μM, 24 h): 104%
- DPX2 Viability @ 25 μM (DPX2 cells; human): 84%
- MBC99 Day 7 (CFU Assay) MBC99 Rel to RMP (M. tuberculosis H37Rv): 0.15
- MBC (M. tuberculosis H37Rv): 0.02 µM
- MIC90 (MTB H37Rv ATCC 27294; Mycobacterium tuberculosis): < 0.016 µM
- IC50 [2]: 7.3 µM
- IC50 [3]: 32 µM
- IC50 (VERO cells (ATCC CRL-81); Chlorocebus sabaeus, Vero): > 8 µM
- IC50 (E. coli WT RNAP): 0.016 µM

SMILES: CO[C@H]1/C=C/O[C@@]2(C)Oc3c(C)c(O)c4c(=O)c(c5oc6cc(N7CCN(C(=O)c8ccc(-c9ccc(C(N)=O)cc9)cc8)CC7)cc(OCc7ccc(CN8CCOCC8)cc7)c6nc-5c4c3C2=O)NC(=O)/C(C)=C\C=C\[C@H](C)[C@H](O)[C@@H](C)[C@@H](O)[C@@H](C)[C@H](OC(C)=O)[C@@H]1C [Compound 17t, (7S,9E,11S,12R,13S,14R,15R,16R,17S,18S,19E,21Z)-30-(4-{[4-(4-carbamoylphenyl)-phenyl]carbonyl}piperazin-1-yl)-2,15,17-trihydroxy-11-methoxy-3,7,12,14,16,18,22-heptamethyl-32-{[4-(morpholin-4-ylmethyl)phenyl]methoxy}-6,23,37-trioxo-8,27,38-trioxa-24,34-diazahexacyclo[23.11.1.1^4,7.0^5,36.0^26,35.0^28,33]octatriaconta-1,3,5(36)9,19,21,25,28,30,32,34-undecaen-13-yl acetate]
- DPX2 Viability @ 6.25 μM (DPX2 cells; 6.25 μM, 24 h): 100%
- hPXR Fold Act. (lucif) @ 6.25 μM ([1]; 6.25 μM, 24 h): 1.3 fold
- hPXR Fold Act. (lucif) @ 25 μM ([1]; 25 μM, 24 h): 2.1 fold
- MIC90 MABA Rel to RMP (MTB H37Rv ATCC 27294): 0.6
- MIC90 (MTB H37Rv ATCC 27294): 0.032 µM
- IC50 (VERO cells (ATCC CRL-81)): 55 µM
